Assay results taken from patent US4734275A, “Anti-curare agents” (priority 1986, dated 1988).
Like-named read-outs stand apart in the source and are kept apart here.

What was measured:
[1] = tested on: phrenic nerve-hemidiaphragm preparations; experiment: Antagonism of relaxant-induced neuromuscular block in vitro, rat phrenic nerve-hemidiaphragm; format: cell-based, male Sprague-Dawley rats; design: ED 50 of Antagonists, In Vitro: unit not given here; conditions: for Relative Molar Potency, In Vitro: 4-Aminopyridine = 1.0; for ED 50 of Antagonists, In Vitro: means + SEM of 4 experiments, concentration raising twitch tension to 50% of control in >90% steady state block
Text: (§1) In in vitro tests to determine neuromuscular potency, phrenic nerve-hemidiaphragm preparations from male Sprague-Dawley rats were suspended in modified Krebs solution. In vivo experiments focused on the sciatic nerve-tibialis anterior muscle preparations in male Sprague-Dawleyrats. In each case, stimulation of nerves was accomplished via bipolar platinum electrodes, with supramaximal impulses of 0.2 msec duration at 0.1 HZ, and the isometric twitches were continuously recorded. Greater than 90 % steady state neuromuscular block was achieved either by addition of appropriate concentrations (in vitro) or continuous i.v. infusions (in vivo) of either d-tubocurarine or pancuronium. Antagonism of the induced neuromuscular block was accomplished by the addition of increments of 4-AP, 3,4-DAP, LF-10 or LF-14.
(§2) **The concentration in vitro or the i.v. dose that will increase twitch
(§3) tension to 50% of control in the presence of the concentration or dose of
(§4) muscle relaxant that caused a >90% steady state block.

[2] = tested on: sciatic nerve-tibialis anterior muscle preparations; experiment: Antagonism of relaxant-induced neuromuscular block in vivo, rat sciatic nerve-tibialis anterior muscle; design: species or system male Sprague-Dawley rats; conditions: for Relative Molar Potency, In Vivo: 4-Aminopyridine = 1.0; for ED 50 of Antagonists, In Vivo / ED50: i.v., means + SEM of 4 experiments, dose raising twitch tension to 50% of control in >90% steady state block; for ED50: Rattus norvegicus, iv, read-out: ED 50 of Antagonists, In Vivo
Text: as §1, §2, §3, §4

central nervous system = experiment: Central nervous system stimulatory effects: pentobarbital-induced loss of righting reflex (LRR); format: in vivo, male Sprague-Dawley rats; conditions: for Loss of righting reflex, Onset / Loss of righting reflex, Duration: with 35 mg/kg pentobarbital s.c., LF-10, LF-14 1.1 mg/kg, 4-AP, 3,4-DAP 1.5 mg/kg, mean; for Loss of righting reflex, Onset: control 11.4; for Loss of righting reflex, Duration: control 71.9; for effect on pentobarbital induced LRR / barbiturate CNS effects (in words): with pentobarbital 35 mg/kg s.c.
Protocol: Tests were conducted to determine the stimulatory effects of the compounds of the present invention upon the central nervous system. Male Sprague-Dawley rats were injected subcutaneously with 35 mg/kg of pentobarbital alone, or together with 1.1 mg/kg of LF-10 or LF-14, or 1.5 mg/kg of 4-AP or 3,4-DAP (Foldes, et al., Anesthesiology 57:A-273, 1982). The time of onset and duration of the loss of righting reflex (LRR) was observed.

[3] = tested on: anticholinesterase activity; conditions: background; cited from earlier work
neuromuscular blocks = conditions: background; Bowman and Savage 1981; Agoston et al. 1978; cited from earlier work
[4] = background; Marshall 1982; cited from earlier work
[5] = molar basis, nondepolarizing muscle relaxants
[6] = neuromuscular blocks induced by curare

Row | Compound | Relative Molar Potency, In Vitro ([1]; muscle relaxant Pancuronium) | Relative Molar Potency, In Vitro ([1]; muscle relaxant d-Tubocurarine) | Relative Molar Potency, In Vivo ([2]; muscle relaxant Pancuronium) | Relative Molar Potency, In Vivo ([2]; muscle relaxant d-Tubocurarine) | Loss of righting reflex, Onset (central nervous system) [min] | Loss of righting reflex, Duration (central nervous system) [min] | effect on pentobarbital induced LRR / barbiturate CNS effects (in words) (central nervous system) | ED50 ([2]; muscle relaxant Pancuronium) [mg/kg] | ED50 ([2]; muscle relaxant d-Tubocurarine) [mg/kg] | also measured
1 | 1,1-dimethyl-(3,4-pyridyl)-urea [LF-10] | 3.4 | 4.3 | 2.3 | 7.5 | 14.8 | 63.7 | some effect on shortening the duration of LRR | – | – | ED 50 of Antagonists, In Vitro ([1]; muscle relaxant Pancuronium): 0.5; ED 50 of Antagonists, In Vitro ([1]; muscle relaxant d-Tubocurarine): 0.4; ED 50 of Antagonists, In Vivo ([2]; muscle relaxant Pancuronium): 0.13 + 0.00 mg/Kg; ED 50 of Antagonists, In Vivo ([2]; muscle relaxant d-Tubocurarine): 0.09 + 0.00 mg/Kg
2 | Nc1ccncc1N [3,4-Diaminopyridine, 3,4-diaminopyridine, reference compound] | 2.7 | 2.1 | 0.8 | 1.6 | 13.3 | 78.9 | – | 0.18 | 0.12 | –
3 | Nc1ccncc1 [4-Aminopyridine, 4-aminopyridine, reference compound] | – | – | – | – | 15.2 | 42.0 | significantly (p<0.001) reduce the central nervous system effects of barbiturates | 0.13 | 0.17 | anticholinesterase activity (in words) [3]: no anticholinesterase activity; reversal of muscle relaxants and antagonism of other neuromuscular blocks (in words) (neuromuscular blocks): not only reverse the side effects of clinically used muscule relaxants, but also antagonize the effects of the other neuromuscular blocks listed above; undesirable side effects (in words) [4]: elevated blood pressure, anxiety, insomnia, and a level of central nervous system stimulation which may manifest itself ultimately in convulsions
4 | CN(C)C(=O)Nc1cnccc1N [LF-14, 1,1-Dimethyl-3-(4-amino-3-pyridyl)-urea] | 17 | 17 | 8.2 | 9 | 12.4 | 75.7 | substantially no effect on the pentobarbital induced LRR | 0.04 | 0.04 | neuromuscular potency / antagonism (in words), in vitro [1, 5]: greatest both in vitro and in vivo; molar potency relative to 4-AP, in vitro [1, 6]: 17 times that of 4-AP; neuromuscular potency / antagonism (in words), in vivo [2, 5]: greatest both in vitro and in vivo; molar potency relative to 4-AP, in vivo [2, 6]: 9 times that of 4-AP; stimulatory effects on the central nervous system (in words) (central nervous system; rat, in vivo): no stimulatory effects on the central nervous system
